“And” between values parts separate entries of the source, which are not always exact repeats. Identical values can stand only once.
Experiments:
[1] = system: Staphylococcus aureus MW2 (mecA+); test: IC50 (growth, competition assay); conditions: cefoxitin: subinhibitory
Method in brief: (§1)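 Pre-induced, 1:1-mixed fluorescent S. aureus MW2 mecA+ and ΔmecA strains were grown 20 h at 37 °C, 90% humidity, unshaken, in LB with a daily-set subinhibitory cefoxitin dose, in 1536-well plates. Compounds were given on five- or nine-point 2-fold gradients, in two dye-swapped replicates. DsRed (540/590) and GFP (485/520) were scaled per plate between single-strain control medians, with No Treatment then set to 0.5. Per-strain IC50 was the dose halving the No Treatment signal, or the maximal signal.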

[2] = system: Staphylococcus aureus MW2 delta-mecA (mecA-); test: IC50 (growth, competition assay); conditions: cefoxitin: subinhibitory
Method in brief: as §1

SMILES	IC50 ([1]; fluorescent label: DsRed)	IC50 ([1]; fluorescent label: GFP)	IC50 ([2]; fluorescent label: DsRed)	IC50 ([2]; fluorescent label: GFP)
CC[C@@H](C(=O)O)[C@@H]1O[C@@H]([C@@H](C)[C@H](O)[C@H](C)C(=O)[C@H](CC)[C@H]2O[C@]3(C=C[C@@H](O)[C@]4(CC[C@@](C)([C@H]5CC[C@](O)(CC)[C@H](C)O5)O4)O3)[C@H](C)C[C@@H]2C)[C@@H](C)C[C@@H]1C [NARASIN]	< 9.85 µM	< 9.85 µM	< 9.85 µM	< 9.85 µM
N=C(N)c1ccc(OCCCCCOc2ccc(C(=N)N)cc2)cc1 [NEBUPENT]	16.2 µM	23.6 µM	14.5 µM	13.7 µM
O=C(Nc1ccc([N+](=O)[O-])cc1Cl)c1cc(Cl)ccc1O [NICLOSIDE]	< 9.85 µM	< 9.85 µM	< 9.85 µM	< 9.85 µM
O=C(N/N=C/c1ccc([N+](=O)[O-])o1)c1ccc(O)cc1 [NIFUROXAZIDE]	< 9.85 µM	54.6 µM	46.2 µM	< 9.85 µM
CC(C)[C@H]1c2ccc(F)cc2CC[C@@]1(CCN(C)CCCc1nc2ccccc2[nH]1)OC(=O)C1CC1 [NNC 55-0396]	14.8 µM	14.9 µM	< 9.85 µM	< 9.85 µM
CS(=O)(=O)c1ccc([C@@H](O)[C@@H](CF)NC(=O)C(Cl)Cl)cc1 [NUFLOR]	< 9.85 µM	< 9.85 µM	< 9.85 µM	< 9.85 µM
CCOc1ccc2ccccc2c1C(=O)N[C@@H]1C(=O)N2[C@@H]1SC(C)(C)[C@@H]2C(=O)O [Nafcillin Sodium]	< 9.85 µM	< 9.85 µM	< 9.85 µM	< 9.85 µM
CCn1cc(C(=O)O)c(=O)c2ccc(C)nc21 [Nalidixic acid (NegGram)]	99.9 µM and 57.2 µM	110 µM and 57.2 µM	31.2 µM and 18.4 µM	17.2 µM and 16.7 µM
CCn1cc(C(=O)O)c(=O)c2ccc(C)nc21 [Nalidixic acid sodium]	34 µM	29.8 µM	17.2 µM	16.2 µM
OC(CNCC(O)C1CCc2cc(F)ccc2O1)C1CCc2cc(F)ccc2O1 (stereo not drawn) [Nebivolol]	108 µM	111 µM	35 µM	19.6 µM
O=C(Nc1ccc([N+](=O)[O-])cc1Cl)c1cc(Cl)ccc1O [Niclosamide]	113 µM	< 9.85 µM	< 9.85 µM	73.8 µM
O=C(O)c1cccnc1Nc1cccc(C(F)(F)F)c1 [Niflumic acid]	18.5 µM	21.4 µM	25.8 µM	32.3 µM

Reference: the supplement of paper PMC7695840
